# ChEMBL document CHEMBL1201862, “PubChem BioAssay data set” (2004)
#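 Growth conditions: 96-well plates. Treatment: test compound, 48 hours, 5 concentrations. Analysis: linear interpolation between bracketing concentrations; unreached endpoints set to highest concentration. Here, GI50 denotes the concentration required for 50% inhibition of growth.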 Active and inactive are the calls of the source. Rule as the data show it: active = GI50 up to about 1.1 µM and inactive = higher.
# Experiments:
# Assay in all cases: inhibition of tumour cell growth, NCI panel, 48 h
# 786-0 = tested on: 786-0
# A498 = tested on: A498
# A549 = tested on: A549
# ACHN = tested on: ACHN
# CAKI-1 = tested on: CAKI-1
# CCRF-CEM = tested on: CCRF-CEM
# COLO 205 = tested on: COLO 205
# DLD-1 = tested on: DLD-1
# DMS-114 = tested on: DMS-114
# EKVX = tested on: EKVX
# HCC 2998 = tested on: HCC 2998
# HCT-116 = tested on: HCT-116
# HL-60 = tested on: HL-60
# HOP-62 = tested on: HOP-62
# HOP-92 = tested on: HOP-92
# HT-29 = tested on: HT-29
# IGROV-1 = tested on: IGROV-1
# K562 = tested on: K562
# KM-20L2 = tested on: KM-20L2
# KM12 = tested on: KM12
# M14 = tested on: M14
# M19-MEL = tested on: M19-MEL
# MOLT-4 = tested on: MOLT-4
# Malme-3M = tested on: Malme-3M
# NCI-H23 = tested on: NCI-H23
# NCI-H460 = tested on: NCI-H460
# NCI-H522 = tested on: NCI-H522
# OVCAR-3 = tested on: OVCAR-3
# OVCAR-4 = tested on: OVCAR-4
# OVCAR-5 = tested on: OVCAR-5
# OVCAR-8 = tested on: OVCAR-8
# RPMI-8226 = tested on: RPMI-8226
# RXF 393 = tested on: RXF 393
# RXF 631 = tested on: RXF 631
# SF-268 = tested on: SF-268
# SF-295 = tested on: SF-295
# SF-539 = tested on: SF-539
# SK-MEL-28 = tested on: SK-MEL-28
# SK-MEL-2 = tested on: SK-MEL-2
# SK-MEL-5 = tested on: SK-MEL-5
# SK-OV-3 = tested on: SK-OV-3
# SN12C = tested on: SN12C
# SNB-19 = tested on: SNB-19
# SR = tested on: SR
# SW-620 = tested on: SW-620
# TK-10 = tested on: TK-10
# UACC-257 = tested on: UACC-257
# UACC-62 = tested on: UACC-62
# UO-31 = tested on: UO-31
# BT-549 = tested on: BT-549
# DMS-273 = tested on: DMS-273
# DU-145 = tested on: DU-145
# HCT-15 = tested on: HCT-15
# HOP-18 = tested on: HOP-18
# Hs-578T = tested on: Hs-578T
# LOX IMVI = tested on: LOX IMVI
# LXFL 529 = tested on: LXFL 529
# MCF7 = tested on: MCF7
# MDA-MB-231 = tested on: MDA-MB-231
# MDA-MB-435 = tested on: MDA-MB-435
# MDA-N = tested on: MDA-N
# NCI-H226 = tested on: NCI-H226
# NCI/ADR-RES = tested on: NCI/ADR-RES
# PC-3 = tested on: PC-3
# SNB-75 = tested on: SNB-75
# SNB-78 = tested on: SNB-78
# T47D = tested on: T47D
# U-251 = tested on: U-251
# XF498 = tested on: XF498
compound,measurement,setting,value
CNS(=O)(=O)NNS(=O)(=O)c1ccc(Cl)cc1,GI50,786-0,> 100 µM (inactive)
same,GI50,A498,> 100 µM (inactive)
same,GI50,A549,> 100 µM (inactive)
same,GI50,ACHN,> 100 µM (inactive)
same,GI50,CAKI-1,> 100 µM (inactive)
same,GI50,CCRF-CEM,> 100 µM (inactive)
same,GI50,COLO 205,> 100 µM (inactive)
same,GI50,DLD-1,> 100 µM (inactive)
same,GI50,DMS-114,> 100 µM (inactive)
same,GI50,EKVX,> 100 µM (inactive)
same,GI50,HCC 2998,> 100 µM (inactive)
same,GI50,HCT-116,> 100 µM (inactive)
same,GI50,HL-60,> 100 µM (inactive)
same,GI50,HOP-62,> 100 µM (inactive)
same,GI50,HOP-92,> 100 µM (inactive)
same,GI50,HT-29,> 100 µM (inactive)
same,GI50,IGROV-1,> 100 µM (inactive)
same,GI50,K562,> 100 µM (inactive)
same,GI50,KM-20L2,> 100 µM (inactive)
same,GI50,KM12,> 100 µM (inactive)
same,GI50,M14,> 100 µM (inactive)
same,GI50,M19-MEL,> 100 µM (inactive)
same,GI50,MOLT-4,> 100 µM (inactive)
same,GI50,Malme-3M,> 100 µM (inactive)
same,GI50,NCI-H23,> 100 µM (inactive)
same,GI50,NCI-H460,> 100 µM (inactive)
same,GI50,NCI-H522,> 100 µM (inactive)
same,GI50,OVCAR-3,> 100 µM (inactive)
same,GI50,OVCAR-4,> 100 µM (inactive)
same,GI50,OVCAR-5,> 100 µM (inactive)
same,GI50,OVCAR-8,> 100 µM (inactive)
same,GI50,RPMI-8226,> 100 µM (inactive)
same,GI50,RXF 393,> 100 µM (inactive)
same,GI50,RXF 631,> 100 µM (inactive)
same,GI50,SF-268,> 100 µM (inactive)
same,GI50,SF-295,> 100 µM (inactive)
same,GI50,SF-539,> 100 µM (inactive)
same,GI50,SK-MEL-28,> 100 µM (inactive)
same,GI50,SK-MEL-2,> 100 µM (inactive)
same,GI50,SK-MEL-5,> 100 µM (inactive)
same,GI50,SK-OV-3,> 100 µM (inactive)
same,GI50,SN12C,> 100 µM (inactive)
same,GI50,SNB-19,> 100 µM (inactive)
same,GI50,SR,> 100 µM (inactive)
same,GI50,SW-620,> 100 µM (inactive)
same,GI50,TK-10,> 100 µM (inactive)
same,GI50,UACC-257,> 100 µM (inactive)
same,GI50,UACC-62,> 100 µM (inactive)
same,GI50,UO-31,48.2 µM (inactive)
COc1cc(/C=C/c2ccc(C)cc2)cc(OC)c1OC,GI50,786-0,3.87 µM (inactive)
same,GI50,A549,4.27 µM (inactive)
same,GI50,ACHN,6.31 µM (inactive)
same,GI50,BT-549,5.68 µM (inactive)
same,GI50,CAKI-1,5.9 µM (inactive)
same,GI50,CCRF-CEM,3.45 µM (inactive)
same,GI50,COLO 205,3.16 µM (inactive)
same,GI50,DLD-1,4.06 µM (inactive)
same,GI50,DMS-114,5.9 µM (inactive)
same,GI50,DMS-273,3.79 µM (inactive)
same,GI50,DU-145,3.01 µM (inactive)
same,GI50,EKVX,4.7 µM (inactive)
same,GI50,HCC 2998,4.82 µM (inactive)
same,GI50,HCT-116,3.3 µM (inactive)
same,GI50,HCT-15,4.08 µM
same,GI50,HL-60,2.97 µM (inactive)
same,GI50,HOP-18,11.4 µM (inactive)
same,GI50,HOP-62,4.18 µM (inactive)
same,GI50,HOP-92,9.33 µM (inactive)
same,GI50,HT-29,2.69 µM (inactive)
same,GI50,Hs-578T,2.56 µM (inactive)
same,GI50,IGROV-1,5.11 µM (inactive)
same,GI50,K562,3.1 µM (inactive)
same,GI50,KM-20L2,2.09 µM (inactive)
same,GI50,KM12,3.66 µM (inactive)
same,GI50,LOX IMVI,6.14 µM (inactive)
same,GI50,LXFL 529,5.58 µM (inactive)
same,GI50,M14,3.56 µM (inactive)
same,GI50,M19-MEL,9.98 µM (inactive)
same,GI50,MCF7,3.46 µM (inactive)
same,GI50,MDA-MB-231,5 µM (inactive)
same,GI50,MDA-MB-435,1.14 µM (inactive)
same,GI50,MDA-N,895 nM (active)
same,GI50,MOLT-4,3.91 µM (inactive)
same,GI50,Malme-3M,4.35 µM (inactive)
same,GI50,NCI-H226,4.29 µM (inactive)
same,GI50,NCI-H23,2.9 µM (inactive)
same,GI50,NCI-H460,3.85 µM (inactive)
same,GI50,NCI-H522,2.25 µM (inactive)
same,GI50,NCI/ADR-RES,2.07 µM (inactive)
same,GI50,OVCAR-3,2.48 µM (inactive)
same,GI50,OVCAR-4,17.3 µM (inactive)
same,GI50,OVCAR-5,12.7 µM (inactive)
same,GI50,OVCAR-8,4.43 µM (inactive)
same,GI50,PC-3,2.67 µM (inactive)
same,GI50,RPMI-8226,3.8 µM (inactive)
same,GI50,RXF 393,4.42 µM (inactive)
same,GI50,SF-268,5.37 µM (inactive)
same,GI50,SF-295,2.54 µM (inactive)
same,GI50,SF-539,2.42 µM (inactive)
same,GI50,SK-MEL-28,5.77 µM (inactive)
same,GI50,SK-MEL-2,7.18 µM (inactive)
same,GI50,SK-MEL-5,3.85 µM (inactive)
same,GI50,SK-OV-3,6.84 µM (inactive)
same,GI50,SN12C,4.57 µM (inactive)
same,GI50,SNB-19,4.21 µM (inactive)
same,GI50,SNB-75,2.58 µM (inactive)
same,GI50,SNB-78,2.14 µM (inactive)
same,GI50,SR,2.52 µM (inactive)
same,GI50,SW-620,4.29 µM (inactive)
same,GI50,T47D,4.1 µM (inactive)
same,GI50,TK-10,7.69 µM (inactive)
same,GI50,U-251,3.78 µM (inactive)
same,GI50,UACC-257,6.97 µM (inactive)
same,GI50,UACC-62,3.44 µM (inactive)
same,GI50,UO-31,4.49 µM (inactive)
same,GI50,XF498,6.49 µM (inactive)
